Key:
AKT2 = AKT2 (Homo sapiens, UniProt P31751); format: cell-based; settings: HEK-293T; 1 μM inhibitor, HEK293T cells
How it was run: (§1)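 Using transiently transfected HEK293T cells, the inhibitor (1 μM) is tested for displacing Tracer K10 from each expressed kinase after 20 h expression. Luminescence at donor and acceptor wavelengths yields occupancy.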

AURKA = AURKA (Homo sapiens, UniProt O14965); format: cell-based; settings: HEK-293T; 1 μM inhibitor, HEK293T cells
How it was run: as §1

AURKC = AURKC (Homo sapiens, UniProt Q9UQB9); format: cell-based; settings: HEK-293T; 1 μM inhibitor, HEK293T cells
How it was run: as §1

BMX = BMX (Homo sapiens, UniProt P51813); format: cell-based; settings: HEK-293T; 1 μM inhibitor, HEK293T cells
How it was run: as §1

BRSK2 = BRSK2 (Homo sapiens, UniProt Q8IWQ3); format: cell-based; settings: HEK-293T; 1 μM inhibitor, HEK293T cells
How it was run: as §1

CAMK2A = CAMK2A (Homo sapiens, UniProt Q9UQM7); format: cell-based; settings: HEK-293T; 1 μM inhibitor, HEK293T cells
How it was run: as §1

CDK17 = CDK17 (Homo sapiens, UniProt Q00537); format: cell-based; settings: HEK-293T; 1 μM inhibitor, HEK293T cells
How it was run: as §1

CDKL3 = CDKL3 (Homo sapiens, UniProt Q8IVW4); format: cell-based; settings: HEK-293T; 1 μM inhibitor, HEK293T cells
How it was run: as §1

CDKL5 = CDKL5 (Homo sapiens, UniProt O76039); format: cell-based; settings: HEK-293T; 1 μM inhibitor, HEK293T cells
How it was run: as §1

CHEK2 = CHEK2 (Homo sapiens, UniProt O96017); format: cell-based; settings: HEK-293T; 1 μM inhibitor, HEK293T cells
How it was run: as §1

CSNK1D = CSNK1D (Homo sapiens, UniProt P48730); format: cell-based; settings: HEK-293T; 1 μM inhibitor, HEK293T cells
How it was run: as §1

EPHA4 = EPHA4 (Homo sapiens, UniProt P54764); format: cell-based; settings: HEK-293T; 1 μM inhibitor, HEK293T cells
How it was run: as §1

EPHA6 = EPHA6 (Homo sapiens, UniProt Q9UF33); format: cell-based; settings: HEK-293T; 1 μM inhibitor, HEK293T cells
How it was run: as §1

EPHA7 = EPHA7 (Homo sapiens, UniProt Q15375); format: cell-based; settings: HEK-293T; 1 μM inhibitor, HEK293T cells
EPHA7, sequence (Q15375 28-998): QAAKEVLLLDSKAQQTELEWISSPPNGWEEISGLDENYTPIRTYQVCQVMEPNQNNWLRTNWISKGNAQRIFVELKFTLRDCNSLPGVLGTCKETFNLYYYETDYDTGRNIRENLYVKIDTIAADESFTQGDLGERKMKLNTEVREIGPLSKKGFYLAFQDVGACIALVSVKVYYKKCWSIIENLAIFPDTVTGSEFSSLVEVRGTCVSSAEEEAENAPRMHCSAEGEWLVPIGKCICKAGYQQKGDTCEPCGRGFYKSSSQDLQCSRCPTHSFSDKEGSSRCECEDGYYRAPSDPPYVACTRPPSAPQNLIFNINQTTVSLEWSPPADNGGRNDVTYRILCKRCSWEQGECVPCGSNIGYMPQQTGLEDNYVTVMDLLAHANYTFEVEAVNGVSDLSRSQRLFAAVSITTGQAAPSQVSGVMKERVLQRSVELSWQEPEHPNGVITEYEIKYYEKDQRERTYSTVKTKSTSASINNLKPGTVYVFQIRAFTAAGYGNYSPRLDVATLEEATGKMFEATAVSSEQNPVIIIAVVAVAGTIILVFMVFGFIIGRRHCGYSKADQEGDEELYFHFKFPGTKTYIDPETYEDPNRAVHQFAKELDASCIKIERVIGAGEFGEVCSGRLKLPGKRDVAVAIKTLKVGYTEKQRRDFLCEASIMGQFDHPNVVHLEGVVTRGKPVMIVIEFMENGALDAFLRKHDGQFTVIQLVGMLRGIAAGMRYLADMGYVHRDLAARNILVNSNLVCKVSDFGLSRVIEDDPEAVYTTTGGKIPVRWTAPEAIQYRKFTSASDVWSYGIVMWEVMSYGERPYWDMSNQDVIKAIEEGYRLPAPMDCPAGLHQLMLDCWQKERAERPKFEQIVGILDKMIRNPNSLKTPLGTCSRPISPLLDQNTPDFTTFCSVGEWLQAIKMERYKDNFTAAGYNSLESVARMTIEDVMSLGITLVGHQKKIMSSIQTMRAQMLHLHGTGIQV
How it was run: as §1

FGFR3 = FGFR3 (Homo sapiens, UniProt P22607); format: cell-based; settings: HEK-293T; 1 μM inhibitor, HEK293T cells
How it was run: as §1

FLT3 = FLT3 (Homo sapiens, UniProt P36888); format: cell-based; settings: HEK-293T; 1 μM inhibitor, HEK293T cells
How it was run: as §1

ICK = ICK (Homo sapiens, UniProt Q9UPZ9); format: cell-based; settings: HEK-293T; 1 μM inhibitor, HEK293T cells
How it was run: as §1

JAK3 = JAK3 (Homo sapiens, UniProt P52333); format: cell-based; settings: HEK-293T; 1 μM inhibitor, HEK293T cells
How it was run: as §1

MAP3K11 = MAP3K11 (Homo sapiens, UniProt Q16584); format: cell-based; settings: HEK-293T; 1 μM inhibitor, HEK293T cells
How it was run: as §1

MAP3K21 = MAP3K21 (Homo sapiens, UniProt Q5TCX8); format: cell-based; settings: HEK-293T; 1 μM inhibitor, HEK293T cells
How it was run: as §1

MARK2 = MARK2 (Homo sapiens, UniProt Q7KZI7); format: cell-based; settings: HEK-293T; 1 μM inhibitor, HEK293T cells
MARK2, sequence (Q7KZI7 whole entry): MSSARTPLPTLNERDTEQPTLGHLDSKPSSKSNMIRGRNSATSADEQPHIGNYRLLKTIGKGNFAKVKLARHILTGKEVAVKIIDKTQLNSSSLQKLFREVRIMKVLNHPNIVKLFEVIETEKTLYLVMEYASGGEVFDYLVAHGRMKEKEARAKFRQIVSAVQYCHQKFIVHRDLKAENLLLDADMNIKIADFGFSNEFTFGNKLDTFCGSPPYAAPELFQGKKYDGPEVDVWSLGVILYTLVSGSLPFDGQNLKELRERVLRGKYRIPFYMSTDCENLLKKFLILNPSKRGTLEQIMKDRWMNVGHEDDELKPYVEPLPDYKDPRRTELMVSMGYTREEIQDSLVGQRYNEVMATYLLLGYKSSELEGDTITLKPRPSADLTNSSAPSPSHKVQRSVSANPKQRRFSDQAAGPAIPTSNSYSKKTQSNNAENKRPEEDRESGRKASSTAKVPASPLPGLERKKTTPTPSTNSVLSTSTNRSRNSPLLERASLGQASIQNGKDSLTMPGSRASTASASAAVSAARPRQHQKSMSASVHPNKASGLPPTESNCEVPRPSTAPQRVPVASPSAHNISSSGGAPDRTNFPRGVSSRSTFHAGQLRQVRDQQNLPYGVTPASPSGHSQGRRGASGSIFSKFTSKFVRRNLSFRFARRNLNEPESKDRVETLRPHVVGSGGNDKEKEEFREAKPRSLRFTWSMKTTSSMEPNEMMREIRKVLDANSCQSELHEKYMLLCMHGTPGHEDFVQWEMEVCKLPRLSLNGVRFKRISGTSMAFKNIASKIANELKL
How it was run: as §1

NEK2 = NEK2 (Homo sapiens, UniProt P51955); format: cell-based; settings: HEK-293T; 1 μM inhibitor, HEK293T cells
How it was run: as §1

NEK3 = NEK3 (Homo sapiens, UniProt P51956); format: cell-based; settings: HEK-293T; 1 μM inhibitor, HEK293T cells
NEK3, sequence (P51956 whole entry): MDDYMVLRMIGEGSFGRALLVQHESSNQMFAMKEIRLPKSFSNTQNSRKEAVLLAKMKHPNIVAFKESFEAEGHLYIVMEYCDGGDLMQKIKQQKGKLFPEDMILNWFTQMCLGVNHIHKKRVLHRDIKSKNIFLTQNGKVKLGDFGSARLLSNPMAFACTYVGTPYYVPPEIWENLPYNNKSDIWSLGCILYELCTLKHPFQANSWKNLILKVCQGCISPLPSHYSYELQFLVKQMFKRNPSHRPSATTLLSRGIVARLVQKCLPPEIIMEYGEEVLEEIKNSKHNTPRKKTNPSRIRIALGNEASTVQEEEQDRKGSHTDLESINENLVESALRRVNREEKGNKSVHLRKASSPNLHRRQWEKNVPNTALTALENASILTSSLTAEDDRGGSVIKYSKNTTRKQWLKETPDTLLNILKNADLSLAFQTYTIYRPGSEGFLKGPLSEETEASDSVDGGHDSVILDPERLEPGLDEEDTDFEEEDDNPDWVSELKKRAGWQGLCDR
How it was run: as §1

NEK5 = NEK5 (Homo sapiens, UniProt Q6P3R8); format: cell-based; settings: HEK-293T; 1 μM inhibitor, HEK293T cells
NEK5, sequence (Q6P3R8 whole entry): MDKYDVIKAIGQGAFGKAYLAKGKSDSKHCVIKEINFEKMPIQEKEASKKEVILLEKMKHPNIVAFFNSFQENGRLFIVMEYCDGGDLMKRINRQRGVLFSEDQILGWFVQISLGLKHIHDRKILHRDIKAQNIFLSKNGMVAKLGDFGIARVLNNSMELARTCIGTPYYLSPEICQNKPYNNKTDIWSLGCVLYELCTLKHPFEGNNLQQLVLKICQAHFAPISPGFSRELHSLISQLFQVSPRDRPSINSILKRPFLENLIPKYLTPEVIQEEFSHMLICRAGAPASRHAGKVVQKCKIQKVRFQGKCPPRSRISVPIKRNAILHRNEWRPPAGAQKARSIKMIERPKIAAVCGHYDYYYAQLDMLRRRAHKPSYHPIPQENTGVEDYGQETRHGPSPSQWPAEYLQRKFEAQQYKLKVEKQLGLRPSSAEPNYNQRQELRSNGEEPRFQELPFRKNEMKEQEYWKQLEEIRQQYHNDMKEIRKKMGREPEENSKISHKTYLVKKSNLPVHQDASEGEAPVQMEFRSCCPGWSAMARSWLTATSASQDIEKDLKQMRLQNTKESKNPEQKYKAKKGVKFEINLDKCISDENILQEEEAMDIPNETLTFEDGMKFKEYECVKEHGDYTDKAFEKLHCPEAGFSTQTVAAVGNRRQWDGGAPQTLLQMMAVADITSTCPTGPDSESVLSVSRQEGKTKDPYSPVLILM
How it was run: as §1

NIM1K = NIM1K (Homo sapiens, UniProt Q8IY84); format: cell-based; settings: HEK-293T; 1 μM inhibitor, HEK293T cells
How it was run: as §1

PHKG1 = PHKG1 (Homo sapiens, UniProt Q16816); format: cell-based; settings: HEK-293T; 1 μM inhibitor, HEK293T cells
How it was run: as §1

PRKACB = PRKACB (Homo sapiens, UniProt P22694); format: cell-based; settings: HEK-293T; 1 μM inhibitor, HEK293T cells
How it was run: as §1

PTK2 = PTK2 (Homo sapiens, UniProt Q05397); format: cell-based; settings: 1 μM inhibitor, HEK293T cells
How it was run: as §1

RPS6KA2 = RPS6KA2 (Homo sapiens, UniProt Q15349); format: cell-based; settings: HEK-293T; 1 μM inhibitor, HEK293T cells
How it was run: as §1

SLK = SLK (Homo sapiens, UniProt Q9H2G2); format: cell-based; settings: HEK-293T; 1 μM inhibitor, HEK293T cells
SLK, sequence (Q9H2G2 whole entry): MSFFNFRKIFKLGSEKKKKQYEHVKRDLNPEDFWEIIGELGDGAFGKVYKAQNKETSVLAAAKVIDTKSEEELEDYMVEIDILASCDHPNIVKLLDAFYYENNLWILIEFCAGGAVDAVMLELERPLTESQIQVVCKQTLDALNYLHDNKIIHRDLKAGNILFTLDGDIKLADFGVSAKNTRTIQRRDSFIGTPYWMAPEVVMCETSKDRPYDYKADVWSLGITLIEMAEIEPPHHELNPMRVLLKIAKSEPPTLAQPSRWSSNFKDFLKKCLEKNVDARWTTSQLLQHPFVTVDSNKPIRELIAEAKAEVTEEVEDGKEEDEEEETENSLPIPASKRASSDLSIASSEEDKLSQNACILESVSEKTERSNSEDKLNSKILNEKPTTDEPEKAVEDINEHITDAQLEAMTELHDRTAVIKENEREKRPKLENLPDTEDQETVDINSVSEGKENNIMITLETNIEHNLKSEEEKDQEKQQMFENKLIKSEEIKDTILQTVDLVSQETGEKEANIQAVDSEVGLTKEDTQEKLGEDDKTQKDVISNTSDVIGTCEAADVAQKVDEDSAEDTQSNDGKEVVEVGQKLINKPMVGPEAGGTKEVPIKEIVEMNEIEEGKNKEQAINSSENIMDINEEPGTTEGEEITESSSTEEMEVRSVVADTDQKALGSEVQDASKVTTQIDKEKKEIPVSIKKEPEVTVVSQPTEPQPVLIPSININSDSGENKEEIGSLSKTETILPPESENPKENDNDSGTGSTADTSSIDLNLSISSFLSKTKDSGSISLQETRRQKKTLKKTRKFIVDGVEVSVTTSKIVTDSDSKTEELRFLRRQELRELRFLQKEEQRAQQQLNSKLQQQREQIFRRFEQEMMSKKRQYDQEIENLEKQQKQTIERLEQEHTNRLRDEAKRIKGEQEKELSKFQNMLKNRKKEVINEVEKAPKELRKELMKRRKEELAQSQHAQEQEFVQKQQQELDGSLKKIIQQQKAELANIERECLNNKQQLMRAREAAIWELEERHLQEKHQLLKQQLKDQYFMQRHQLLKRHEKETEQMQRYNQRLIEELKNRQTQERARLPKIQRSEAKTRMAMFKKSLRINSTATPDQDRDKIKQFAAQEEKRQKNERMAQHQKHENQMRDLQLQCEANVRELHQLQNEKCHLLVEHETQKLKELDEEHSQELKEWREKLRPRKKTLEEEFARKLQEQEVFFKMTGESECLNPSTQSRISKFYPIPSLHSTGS
How it was run: as §1

SRMS = SRMS (Homo sapiens, UniProt Q9H3Y6); format: cell-based; settings: HEK-293T; 1 μM inhibitor, HEK293T cells
How it was run: as §1

STK16 = STK16 (Homo sapiens, UniProt O75716); format: cell-based; settings: HEK-293T; 1 μM inhibitor, HEK293T cells
STK16, sequence (O75716 whole entry): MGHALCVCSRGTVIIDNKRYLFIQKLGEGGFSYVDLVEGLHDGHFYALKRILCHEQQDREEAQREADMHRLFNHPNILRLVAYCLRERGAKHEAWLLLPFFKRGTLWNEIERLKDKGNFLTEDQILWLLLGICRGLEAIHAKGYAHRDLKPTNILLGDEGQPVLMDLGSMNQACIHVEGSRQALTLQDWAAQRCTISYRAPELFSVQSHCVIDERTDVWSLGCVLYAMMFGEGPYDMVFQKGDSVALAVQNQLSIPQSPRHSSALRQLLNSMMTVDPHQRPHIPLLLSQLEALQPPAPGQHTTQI
How it was run: as §1

TBK1 = TBK1 (Homo sapiens, UniProt Q9UHD2); format: cell-based; settings: HEK-293T; 1 μM inhibitor, HEK293T cells
How it was run: as §1

TEK = TEK (Homo sapiens, UniProt Q02763); format: cell-based; settings: HEK-293T; 1 μM inhibitor, HEK293T cells
How it was run: as §1

TXK = TXK (Homo sapiens, UniProt P42681); format: cell-based; settings: HEK-293T; 1 μM inhibitor, HEK293T cells
TXK, sequence (P42681 whole entry): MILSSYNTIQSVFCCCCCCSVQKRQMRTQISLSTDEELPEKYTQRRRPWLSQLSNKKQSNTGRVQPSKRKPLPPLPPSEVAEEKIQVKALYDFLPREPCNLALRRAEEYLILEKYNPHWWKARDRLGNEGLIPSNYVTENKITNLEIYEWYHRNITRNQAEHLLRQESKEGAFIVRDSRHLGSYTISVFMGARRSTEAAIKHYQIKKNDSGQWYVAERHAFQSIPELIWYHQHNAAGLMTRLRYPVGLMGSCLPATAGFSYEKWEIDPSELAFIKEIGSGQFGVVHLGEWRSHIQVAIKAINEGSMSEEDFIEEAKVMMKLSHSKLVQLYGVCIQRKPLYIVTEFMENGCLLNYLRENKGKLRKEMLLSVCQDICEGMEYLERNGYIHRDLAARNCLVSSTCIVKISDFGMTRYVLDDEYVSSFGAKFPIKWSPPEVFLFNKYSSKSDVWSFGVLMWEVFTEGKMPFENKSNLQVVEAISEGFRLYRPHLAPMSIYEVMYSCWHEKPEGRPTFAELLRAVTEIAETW
How it was run: as §1

KIT(V559D,V654A) = KIT(V559D,V654A) (Homo sapiens, UniProt P10721, V559D/V654A); experiment: biochemical; format: binding; settings: read-out: Percent Control

What does the source list for `CN1C(=O)[C@@H](N2CCc3c(nn(Cc4ccccc4)c3C(N)=O)C2=O)COc2cc(Cl)ccc21` [Compound 10, (S)-2-benzyl-6-(8-chloro-5-methyl-4-oxo-2,3,4,5-tetrahydrobenzo[b][1,4]oxazepin-3-yl)-7-oxo-4,5,6,7-tetrahydro-2H-pyrazolo[3,4-c]pyridine-3-carboxamide]?
receptor occupancy at 1 µM (AKT2): -1.95%; receptor occupancy at 1 µM (AURKA): -7.12%; receptor occupancy at 1 µM (AURKC): 5.08%; receptor occupancy at 1 µM (BMX): -3.33%; receptor occupancy at 1 µM (BRSK2): 2.53%; receptor occupancy at 1 µM (CAMK2A): -6.57%; receptor occupancy at 1 µM (CDK17): 4.13%; receptor occupancy at 1 µM (CDKL3): 4.18%; receptor occupancy at 1 µM (CDKL5): 1.05%; receptor occupancy at 1 µM (CHEK2): -1.73%; receptor occupancy at 1 µM (CSNK1D): 0.69%; receptor occupancy at 1 µM (EPHA4): -5.78%; receptor occupancy at 1 µM (EPHA6): -0.834%; receptor occupancy at 1 µM (EPHA7): -2.24%; receptor occupancy at 1 µM (FGFR3): 22.5%; receptor occupancy at 1 µM (FLT3): -3.18%; receptor occupancy at 1 µM (ICK): 3.76%; receptor occupancy at 1 µM (JAK3): 4.78%; receptor occupancy at 1 µM (MAP3K11): -27.3%; receptor occupancy at 1 µM (MAP3K21): -2.72%; receptor occupancy at 1 µM (MARK2): 16.3%; receptor occupancy at 1 µM (NEK2): -8.89%; receptor occupancy at 1 µM (NEK3): -12%; receptor occupancy at 1 µM (NEK5): -1.37%; receptor occupancy at 1 µM (NIM1K): 5.36%; receptor occupancy at 1 µM (PHKG1): -0.896%; receptor occupancy at 1 µM (PRKACB): 0.396%; receptor occupancy at 1 µM (PTK2): -12.2%; receptor occupancy at 1 µM (RPS6KA2): -4.28%; receptor occupancy at 1 µM (SLK): 19%; receptor occupancy at 1 µM (SRMS): 10.1%; receptor occupancy at 1 µM (STK16): -1.63%; receptor occupancy at 1 µM (TBK1): 2.77%; receptor occupancy at 1 µM (TEK): 9.13%; receptor occupancy at 1 µM (TXK): 4.81%; remaining activity at 1 µM (KIT(V559D,V654A)): 92%
